Assay results taken from patent US20060100245A1, “Substituted biphenyl-4-carboxylic acid arylamide analogues” (Neurogen Corporation, priority 2002, published 2006).

Target: T1, human capsaicin receptor (VR1) (Homo sapiens, UniProt Q8NER1)
T1 construct: transfected with the pBK-CMV expression construct encoding the full length human capsaicin receptor; expressed in transfected cells
Assay: Capsaicin receptor binding assay ([3H]RTX competition)
Conditions: read-out: Ki
Summary of the method: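 Membranes from HEK293 cells stably expressing full-length human VR1; competition against 60 pM [3H]RTX, 60 min at 37 °C in HEPES/sucrose buffer pH 7.4 with 0.25 mg/ml BSA. Non-specific binding defined with 1 μM unlabelled RTX; alpha1-acid glycoprotein added after termination on ice.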

T1 sequence (Q8NER1 whole entry): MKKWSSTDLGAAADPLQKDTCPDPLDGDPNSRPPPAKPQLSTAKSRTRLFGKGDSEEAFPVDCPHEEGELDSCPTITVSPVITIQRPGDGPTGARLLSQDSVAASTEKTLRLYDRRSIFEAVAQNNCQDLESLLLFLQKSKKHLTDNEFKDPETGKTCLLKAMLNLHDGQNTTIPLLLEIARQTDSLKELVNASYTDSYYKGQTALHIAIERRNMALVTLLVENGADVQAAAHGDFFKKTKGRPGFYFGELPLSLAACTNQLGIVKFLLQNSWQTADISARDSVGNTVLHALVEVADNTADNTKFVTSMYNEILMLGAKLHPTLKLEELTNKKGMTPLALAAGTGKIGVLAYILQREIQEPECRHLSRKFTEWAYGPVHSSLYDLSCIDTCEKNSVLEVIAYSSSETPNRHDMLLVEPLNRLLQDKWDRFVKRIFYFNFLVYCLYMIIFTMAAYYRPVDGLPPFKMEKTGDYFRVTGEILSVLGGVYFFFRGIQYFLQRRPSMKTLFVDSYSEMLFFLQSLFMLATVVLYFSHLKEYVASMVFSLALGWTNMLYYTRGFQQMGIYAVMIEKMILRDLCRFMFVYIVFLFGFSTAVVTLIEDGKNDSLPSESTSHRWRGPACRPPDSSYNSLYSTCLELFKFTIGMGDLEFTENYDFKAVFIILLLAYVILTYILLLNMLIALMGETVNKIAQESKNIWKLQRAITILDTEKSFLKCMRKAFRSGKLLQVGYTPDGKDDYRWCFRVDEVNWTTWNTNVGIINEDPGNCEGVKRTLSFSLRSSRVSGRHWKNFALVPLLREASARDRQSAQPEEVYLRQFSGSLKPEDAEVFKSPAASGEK

| SMILES | Ki |
| --- | --- |
| CC(C)(C)c1ccc(NC(=O)c2ccc(-c3ncccc3N(S(C)(=O)=O)S(C)(=O)=O)cc2)cc1 [Compound 426, N-(4-tert-Butyl-phenyl)-4-[3-(N,N-dimethanesulfonyl)amino-pyridin-2-yl]-benzamide] | < 1000 nM |
| O=C(Nc1ccc2c(c1)CCC2)c1ccc(-c2ccccc2F)nc1 [Compound 93, 6-(2-Fluoro-phenyl)-N-indan-5-yl-nicotinamide] | < 1000 nM |
| CC(C)(C)c1ccc(NC(=O)c2ccc(-c3ncccn3)cc2)cc1 [Compound 433, N-(4-tert-Butyl-phenyl)-4-pyrimidin-2-yl-benzamide] | < 1000 nM |
| CC(C)(C)c1ccc(NC(=O)c2ccc(-c3nccnc3Cl)cc2)cc1 [Compound 403, N-(4-tert-Butyl-phenyl)-4-(3-chloro-pyrazin-2-yl)-benzamide] | < 1000 nM |
| CC(C)c1ccc(NC(=O)c2ccc(-c3ncccc3Cl)cc2)cc1 [Compound 27, 4-(3-Chloro-pyridin-2-yl)-N-(4-isopropyl-phenyl)-benzamide] | < 1000 nM |
| Cc1cc(C)cc(-c2ccc(C(=O)Nc3ccc(Br)c(Cl)c3)cn2)c1 [Compound 316, N-(4-Bromo-3-chloro-phenyl)-6-(3,5-dimethyl-phenyl)-nicotinamide] | < 1000 nM |
| O=C(Nc1ccc(F)c(F)c1)c1ccc(-c2ncccc2F)cc1 [Compound 214, N-(3,4-Difluoro-phenyl)-4-(3-fluoro-pyridin-2-yl)-benzamide] | < 1000 nM |
| CN(C)Cc1cccnc1-c1ccc(C(=O)Nc2ccc(C(C)(C)C)cc2)cc1 [Compound 407, N-(4-tert-Butyl-phenyl)-4-(3-dimethylaminomethyl-pyridin-2-yl)-benzamide] | < 1000 nM |
| CC(c1ccc(NC(=O)c2ccc(-c3ncccc3Cl)cc2)cc1)C(F)(F)F (stereo not shown) [Compound 30, 4-(3-Chloro-pyridin-2-yl)-N-[4-(2,2,2-trifluoro-1-methyl-ethyl)-phenyl]-benzamide] | < 1000 nM |
| CC(C)c1ccc(NC(=O)c2ccc(-c3ccccc3)nc2)cc1 [Compound 385, N-(4-Isopropyl-phenyl)-6-phenyl-nicotinamide] | < 1000 nM |
| CS(=O)(=O)N(c1cccnc1-c1ccc(C(=O)Nc2ccc(C(F)(F)F)cn2)cc1)S(C)(=O)=O [Compound 457, N-(5-Trifluoromethyl-pyridin-2-yl)-4-[3-(N,N-dimethanesulfonyl)amino-pyndin-2-yl]-benzamide] | < 1000 nM |
| CC(C)(C)c1cccc(NC(=O)c2ccc(-c3ccccc3F)nc2)c1 [Compound 288, N-(3-tert-Butyl-phenyl)-6-(2-fluoro-phenyl)-nicotinamide] | < 1000 nM |
| Cc1ccc(NC(=O)c2ccc(-c3cccc(OC(F)(F)F)c3)nc2)cc1C [Compound 242, N-(3,4-Dimethyl-phenyl)-6-(3-trifluoromethoxy-phenyl)-nicotinamide] | < 1000 nM |
| CC(C)(C)c1ccc(NC(=O)c2ccc(-c3ncccc3C(F)(F)F)cc2O)cc1 [Compound 394, N-(4-tert-Butyl-phenyl)-2-hydroxy-4-(3-trifluoromethyl-pyridin-2-yl)-benzamide] | < 1000 nM |
| O=C(Nc1ccc(Br)c(Cl)c1)c1ccc(-c2ccc(F)cc2)nc1 [Compound 320, N-(4-Bromo-3-chloro-phenyl)-6-(4-fluoro-phenyl)-nicotinamide] | < 1000 nM |
| CC(C)(C)c1ccc(NC(=O)c2ccc(-c3ncc(C(F)(F)F)cc3Cl)cc2)cc1 [Compound 402, N-(4-tert-Butyl-phenyl)-4-(3-chloro-5-trifluoromethyl-pyridin-2-yl)-benzamide] | < 1000 nM |
| Cc1nc2cc(NC(=O)c3ccc(-c4cccc(C(C)C)c4)nc3)ccc2s1 [Compound 130, 6-(3-Isopropyl-phenyl)-N-(2-methyl-benzothiazol-5-yl)-nicotinamide] | < 1000 nM |

| SMILES | Ki |
| --- | --- |
| Cc1ccccc1-c1ccc(C(=O)Nc2ccc(C(F)(F)F)cc2)cn1 [Compound 185, 6-o-Tolyl-N-(4-trifluoromethyl-phenyl)-nicotinamide] | < 1000 nM |
| COc1cccc(NC(=O)c2ccc(-c3cccc(F)c3)nc2)c1 [Compound 126, 6-(3-Fluoro-phenyl)-N-(3-methoxy-phenyl)-nicotinamide] | < 1000 nM |
| CC(C)(C)c1ccc(NC(=O)c2ccc(-c3ncccc3NS(=O)(=O)c3ccc(F)cc3)cc2)cc1 [Compound 423, N-(4-tert-Butyl-phenyl)-4-[3-(4-fluoro-benzenesulfonylamino)-pyridin-2-yl]-benzamide] | < 1000 nM |
| CC(=O)c1ccccc1-c1ccc(C(=O)Nc2ccc(C(C)(C)C)cc2)cn1 [Compound 60, 6-(2-Acetyl-phenyl)-N-(4-tert-butyl-phenyl)-nicotinamide] | < 1000 nM |
| Cc1cc(C)cc(-c2ccc(C(=O)Nc3ccc(C)c(F)c3)cn2)c1 [Compound 110, 6-(3,5-Dimethyl-phenyl)-N-(3-fluoro-4-methyl-phenyl)-nicotinamide] | < 1000 nM |
| CCc1ccc(NC(=O)c2ccc(-c3ccccc3C)nc2)cc1 [Compound 374, N-(4-Ethyl-phenyl)-6-o-tolyl-nicotinamide] | < 1000 nM |
| CC(C)(C#N)c1ccc(NC(=O)c2ccc(-c3ncccc3Cl)cc2)cc1 [Compound 32, 4-(3-Chloro-pyridin-2-yl)-N-[4-(cyano-dimethyl-methyl)-phenyl]-benzamide] | < 1000 nM |
| Cc1cc(NC(=O)c2ccc(-c3ncccc3Cl)cc2)ccc1C(C)C [Compound 26, 4-(3-Chloro-pyridin-2-yl)-N-(4-isopropyl-3-methyl-phenyl)-benzamide] | < 1000 nM |
| CCOc1cccc(-c2ccc(C(=O)Nc3ccc(C)c(C)c3)cn2)c1 [Compound 238, N-(3,4-Dimethyl-phenyl)-6-(3-ethoxyl-phenyl)-nicotinamide] | < 1000 nM |
| CCOc1cccc(-c2ccc(C(=O)Nc3ccc4c(c3)CCC4)cn2)c1 [Compound 124, 6-(3-Ethoxy-phenyl)-N-indan-5-yl-nicotinamide] | < 1000 nM |
| COc1cccc(NC(=O)c2ccc(-c3ccccc3F)nc2)c1 [Compound 87, 6-(2-Fluoro-phenyl)-N-(3-methoxy-phenyl)-nicotinamide] | < 1000 nM |
| Cc1ccc(NC(=O)c2ccc(-c3cccc(F)c3)nc2)cc1F [Compound 266, N-(3-Fluoro-4-methyl-phenyl)-6-(3-fluoro-phenyl)-nicotinamide] | < 1000 nM |
| CC(C)(C)c1ccc(NC(=O)c2cnc(-c3ccccc3Cl)cc2O)cc1 [Compound 441, N-(4-tert-Butyl-phenyl)-6-(2-chloro-phenyl)-4-hydroxy-nicotinamide] | < 1000 nM |
| O=C(Nc1ccc(C(F)(F)F)cc1)c1ccc(-c2ncccc2C(F)(F)F)cc1[N+](=O)[O-] [Compound 19, 2-Nitro-N-(4-trifluoromethyl-phenyl)-4-(3-trifluoromethyl-pyridin-2-yl)-benzamide] | < 1000 nM |
| CC(C)(C)c1ccc(NC(=O)c2ccc(-c3ccccc3N)nc2)cc1 [Compound 61, 6-(2-Amino-phenyl)-N-(4-tert-butyl-phenyl)-nicotinamide] | < 1000 nM |
| O=C(Nc1ccc2c(c1)OCCO2)c1ccc(-c2ccccc2F)nc1 [Compound 192, N-(2,3-Dihydro-benzo[1,4]dioxin-6-yl)-6-(2-fluoro-phenyl)-nicotinamide] | < 1000 nM |
| O=C(Nc1ccc(C(F)(F)F)nc1)c1ccc(-c2ncccc2C(F)(F)F)cc1[N+](=O)[O-] [Compound 20, 2-Nitro-N-(6-trifluoromethyl-pyridin-3-yl)-4-(3-trifluoromethyl-pyridin-2-yl)-benzamide] | < 1000 nM |
